Here are results for seven molecules from PubChem BioAssay (NCI).

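Compound exposure: 48 hours, 5 concentrations, 96-well plates. At the GI50, growth is halved. At the TGI there is no net growth.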

Some test systems named below: IGROV1 ovarian; M14 melanoma; NCI-H226 lung; NCI-H460 lung; NCI-H522 lung; PC-3 prostate; RPMI-8226 leukemia; SNB-19 CNS; U251 CNS; UO-31 renal.
Assay in all cases: NCI tumour cell line growth inhibition, 48 h

As for `O=C(O)/C=C/c1ccc[c]([Sb](=[O])([OH])[OH])c1`, the GI50 in the assay with IGROV1 ovarian, in the assay with M14 melanoma, in the assay on NCI-H226 lung, in the assay with NCI-H460 lung, in the assay on NCI-H522 lung and with PC-3 prostate was > 100 µM each time. The GI50 in the assay with RPMI-8226 leukemia, with SNB-19 CNS, in the assay on U251 CNS and in the assay on UO-31 renal was > 100 µM throughout. Moreover, the TGI with IGROV1 ovarian, in the assay on M14 melanoma, in the assay with NCI-H226 lung, in the assay with NCI-H460 lung, in the assay on NCI-H522 lung and in the assay with PC-3 prostate was > 100 µM throughout. For the same molecule, the TGI in the assay on RPMI-8226 leukemia, with SNB-19 CNS, in the assay with U251 CNS and with UO-31 renal was > 100 µM each time.

Consider `COC1(OC)C2(Cl)C(Cl)=C(Cl)C1(Cl)C1c3ccc(C(C)=O)c4cccc(c34)C12` (stereo not given), for which the TGI is > 100 µM with IGROV1 ovarian; > 96.4 µM in the assay on M14 melanoma; 81.4 µM in the assay on NCI-H226 lung; > 80.5 µM in the assay on NCI-H460 lung; > 70.2 µM in the assay with NCI-H522 lung; > 100 µM with PC-3 prostate. In addition, the TGI with RPMI-8226 leukemia is > 100 µM; in the assay with SNB-19 CNS, > 100 µM; in the assay with U251 CNS, 99.9 µM; in the assay with UO-31 renal it was > 100 µM.

With `Cc1ccc2[nH]c3c(c2c1)N=c1ccccc1=NO3`, the GI50 was 32.6 µM in the assay with IGROV1 ovarian; 48 µM in the assay on M14 melanoma; 70 µM with NCI-H226 lung; 45.9 µM in the assay with NCI-H460 lung; 26 µM with NCI-H522 lung; 57 µM with PC-3 prostate. For the same molecule, the GI50 in the assay on RPMI-8226 leukemia was > 100 µM; with SNB-19 CNS, 32.6 µM; in the assay with U251 CNS, 53.7 µM; with UO-31 renal, 42.2 µM. For the same molecule, the TGI in the assay on IGROV1 ovarian, in the assay on M14 melanoma, with NCI-H226 lung, with NCI-H460 lung, in the assay on NCI-H522 lung and with PC-3 prostate was > 100 µM throughout. In addition, the TGI in the assay with RPMI-8226 leukemia, with SNB-19 CNS, with U251 CNS and with UO-31 renal was > 100 µM throughout.

As for `CN(C)C[C@H]1CCn2c(c(C3=C(c4cn(C)c5ccccc45)C(=O)NC3=O)c3ccccc32)C1`, the GI50 is 6.11 µM with IGROV1 ovarian; 4.49 µM in the assay with M14 melanoma; 5.13 µM in the assay with NCI-H226 lung; 4.86 µM in the assay with NCI-H460 lung; 4.86 µM in the assay with NCI-H522 lung; 3.92 µM with PC-3 prostate. Further, the GI50 with RPMI-8226 leukemia was 4.88 µM; in the assay with SNB-19 CNS, 5.65 µM; with U251 CNS, 3.98 µM; with UO-31 renal, 3.45 µM. Further, the TGI in the assay on IGROV1 ovarian came out at 12.2 µM; in the assay with M14 melanoma it was 8.47 µM; in the assay with NCI-H226 lung, 14.1 µM; in the assay with NCI-H460 lung, 9.55 µM; in the assay with NCI-H522 lung it was 9.17 µM; in the assay with PC-3 prostate, 8.56 µM. Also, the TGI in the assay on RPMI-8226 leukemia is 10.5 µM; in the assay on SNB-19 CNS, 16.6 µM; with U251 CNS, 8.2 µM; in the assay with UO-31 renal, 7.31 µM.

As to `COc1cc(OC)cc(-c2nc3sccn3c2/C=N/N=C(N)N)c1`, the GI50 with IGROV1 ovarian was 11.6 µM; with M14 melanoma it was 6.96 µM; with NCI-H226 lung, 6.96 µM; in the assay with NCI-H460 lung it was 13.3 µM; in the assay with NCI-H522 lung, 15.4 µM; in the assay with PC-3 prostate, 9.23 µM. Further, the GI50 was 10.7 µM with RPMI-8226 leukemia, 9.29 µM in the assay on SNB-19 CNS, 5.2 µM in the assay with U251 CNS and 15.8 µM with UO-31 renal. The TGI was 26.2 µM in the assay on IGROV1 ovarian; 13.4 µM in the assay on M14 melanoma; 14.8 µM in the assay on NCI-H226 lung; 42.9 µM in the assay on NCI-H460 lung; > 50 µM with NCI-H522 lung; 16.2 µM in the assay on PC-3 prostate. Also, the TGI is 21.6 µM with RPMI-8226 leukemia, 19.3 µM with SNB-19 CNS, 11.1 µM in the assay with U251 CNS and > 50 µM in the assay on UO-31 renal.

Regarding `Nc1ncn(C2OC(COP(=O)(O)O)C(O)C2O)c(=O)n1` (stereo not given), the TGI in the assay on IGROV1 ovarian, with M14 melanoma, in the assay on NCI-H226 lung, with NCI-H460 lung, in the assay with NCI-H522 lung and in the assay on PC-3 prostate was > 100 µM throughout. In addition, the TGI in the assay on RPMI-8226 leukemia, in the assay with SNB-19 CNS, in the assay with U251 CNS and with UO-31 renal was > 100 µM in each case.

With `COC12C=C/C(=C(/C(=O)OCCSc3ccnn3C)C(=O)CCCCCCCCC3(OC)C=C/C(=C(/C(=O)OCCSc4ccnn4C)C(=O)CCCCCCCC1)O3)O2`, the GI50 was 1.46 µM with IGROV1 ovarian; 0.873 µM with M14 melanoma; 0.827 µM with NCI-H226 lung; 1.07 µM in the assay with NCI-H460 lung; 0.648 µM in the assay with NCI-H522 lung; 1.51 µM with PC-3 prostate. Further, the GI50 in the assay with RPMI-8226 leukemia is 0.895 µM; with SNB-19 CNS it was 1.88 µM; in the assay on U251 CNS it was 0.979 µM; in the assay with UO-31 renal it was 0.942 µM. Besides, the TGI with IGROV1 ovarian was > 32.5 µM; in the assay with M14 melanoma, 2.4 µM; in the assay with NCI-H226 lung, 1.76 µM; in the assay on NCI-H460 lung it was 3.76 µM; with NCI-H522 lung it was 1.62 µM; in the assay with PC-3 prostate, > 32.5 µM. The TGI in the assay with RPMI-8226 leukemia was 2.65 µM; in the assay with SNB-19 CNS it was > 32.5 µM; in the assay on U251 CNS, 3.32 µM; in the assay with UO-31 renal it was 11.1 µM.
